Laboratory results: PubChem BioAssay (NCI)
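Protocol summary: plate cells (96-well), add compound at 5 concentrations, incubate 48 h, interpolate endpoints linearly. Here, GI50 denotes the concentration required for 50% inhibition of growth. TGI is the concentration that stops growth completely.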

What was measured:
Assay in all cases: growth of human tumour cells (NCI), 48 h
HOP-18 NSCLC = system: HOP-18 NSCLC
M19-MEL melanoma = system: M19-MEL melanoma
DLD-1 colon = system: DLD-1 colon
KM20L2 colon = system: KM20L2 colon
DMS 114 small cell lung = system: DMS 114 small cell lung
XF 498 CNS = system: XF 498 CNS
NCI/ADR-RES ovarian = system: NCI/ADR-RES ovarian
PC-3 prostate = system: PC-3 prostate
MDA-MB-231 breast = system: MDA-MB-231 breast
DU-145 prostate = system: DU-145 prostate

Work on O=C(/C=C/c1ccccc1)c1ccc(NCc2nc3ccccc3[nH]2)cc1 yielded a TGI (HOP-18 NSCLC) of 17.6 µM, a TGI (M19-MEL melanoma) of 14.7 µM and a TGI (DLD-1 colon) of 15.6 µM. For the same molecule, the TGI (KM20L2 colon) was 9.06 µM, the TGI (DMS 114 small cell lung) was 12.4 µM and the TGI (XF 498 CNS) was 20.5 µM.

Work on O=[N+]([O-])c1ccc(Sc2c3ccccc3nc3cc(Cl)ccc23)cc1 yielded a GI50 (HOP-18 NSCLC) of over 100 µM, a TGI (HOP-18 NSCLC) of over 100 µM and a GI50 (M19-MEL melanoma) of over 100 µM. It also gave a TGI (M19-MEL melanoma) of over 100 µM, a GI50 (DLD-1 colon) of over 100 µM and a TGI (DLD-1 colon) of over 100 µM. It also gave a GI50 (KM20L2 colon) of over 100 µM, a TGI (KM20L2 colon) of over 100 µM and a GI50 (DMS 114 small cell lung) of over 100 µM. It also gave a TGI (DMS 114 small cell lung) of over 100 µM and a TGI (XF 498 CNS) of 99.6 µM.

CSC1=Nc2ccccc2N=C(c2ccc(Cl)cc2)C1 showed a TGI (HOP-18 NSCLC) of over 100 µM, a TGI (M19-MEL melanoma) of over 100 µM and a TGI (DLD-1 colon) of over 100 µM. It also gave a TGI (KM20L2 colon) of over 100 µM and a TGI (XF 498 CNS) of over 100 µM.

Cc1c2ccccc2cc2ccc3oc([N+](=O)[O-])cc3c12 was tested, and the TGI (HOP-18 NSCLC) was 62.8 µM, the TGI (M19-MEL melanoma) was over 100 µM and the TGI (DLD-1 colon) was over 100 µM. For the same molecule, the TGI (KM20L2 colon) was over 100 µM, the TGI (DMS 114 small cell lung) was over 100 µM and the TGI (XF 498 CNS) was over 100 µM.

Work on CN(C)C(=S)/N=c1\ssc(=S)n1Cc1ccncc1 yielded a TGI (HOP-18 NSCLC) of 57.6 µM, a TGI (M19-MEL melanoma) of 27.8 µM and a TGI (DLD-1 colon) of 47.4 µM. The TGI (KM20L2 colon) was over 100 µM, the TGI (DMS 114 small cell lung) was 7.77 µM and the TGI (XF 498 CNS) was 24.9 µM.

Molecule CC(=O)N1CCC2(c3ccccc3N(C(C)=O)C2c2ccc(O)cc2)C1C(=O)O (stereo not given) has a TGI (HOP-18 NSCLC) of over 100 µM, a TGI (M19-MEL melanoma) of over 100 µM and a TGI (DLD-1 colon) of over 100 µM. It also gave a TGI (KM20L2 colon) of over 100 µM, a TGI (DMS 114 small cell lung) of over 100 µM and a TGI (XF 498 CNS) of over 100 µM.

In the case of CCOC(=O)C1SC(=Nc2ccc(Cl)cc2)N=C1C (stereo not given), the TGI (HOP-18 NSCLC) is reported as 42.5 µM, the TGI (M19-MEL melanoma) is reported as 33 µM and the TGI (DLD-1 colon) is reported as 28.7 µM. The TGI (KM20L2 colon) was 33.4 µM, the TGI (DMS 114 small cell lung) was 81 µM and the TGI (XF 498 CNS) was 34.2 µM.

CCOC(=O)NC(=O)c1cn(CCN2CCN(C(=O)CCCCCCCCCCC(=O)N3CCN(CCn4cc(C(=O)NC(=O)OCC)c(=O)[nH]c4=O)CC3)CC2)c(=O)[nH]c1=O gave a TGI (HOP-18 NSCLC) of over 100 µM, a TGI (M19-MEL melanoma) of over 100 µM and a TGI (DLD-1 colon) of over 100 µM. It also gave a TGI (DMS 114 small cell lung) of over 100 µM and a TGI (XF 498 CNS) of over 100 µM.

Cc1ccccc1C(=O)N1CCN(C(=O)c2ccccc2C)CC1 gave a TGI (HOP-18 NSCLC) of over 100 µM, a TGI (M19-MEL melanoma) of over 100 µM and a TGI (DLD-1 colon) of over 100 µM. It also gave a TGI (KM20L2 colon) of over 100 µM and a TGI (XF 498 CNS) of over 100 µM.

In the case of CCCCN(CC)CC(C(C)=O)c1c(O)c2ccccc2oc1=O (stereo not given), the TGI (HOP-18 NSCLC) is reported as over 100 µM, the TGI (M19-MEL melanoma) is reported as over 100 µM and the TGI (DLD-1 colon) is reported as over 100 µM. It also gave a TGI (KM20L2 colon) of over 100 µM, a TGI (DMS 114 small cell lung) of over 100 µM and a TGI (XF 498 CNS) of over 100 µM.

CCCCN(CCCC)C(=O)/C(CC(=O)c1cccc2ccccc12)=N\NC(=O)c1cc2ccccc2cc1O was tested, and the TGI (M19-MEL melanoma) was over 100 µM, the TGI (DLD-1 colon) was over 100 µM and the TGI (KM20L2 colon) was 51.3 µM. It also gave a TGI (XF 498 CNS) of 88.1 µM.

c1ccc(N2N=C(c3ccco3)CC2c2ccco2)cc1 (stereo not given) gave a TGI (M19-MEL melanoma) of over 100 µM, a TGI (KM20L2 colon) of over 100 µM and a TGI (DMS 114 small cell lung) of over 100 µM. The TGI (XF 498 CNS) was over 100 µM.

Work on CSc1nnc(COc2ccc(Cl)cc2)o1 yielded a TGI (M19-MEL melanoma) of over 100 µM, a TGI (DLD-1 colon) of over 100 µM and a TGI (KM20L2 colon) of over 100 µM. For the same molecule, the TGI (DMS 114 small cell lung) was over 100 µM and the TGI (XF 498 CNS) was over 100 µM.

Cc1c(C(=O)O)oc2ccc([N+](=O)[O-])cc12 was tested, and the TGI (HOP-18 NSCLC) was over 100 µM, the TGI (M19-MEL melanoma) was over 100 µM and the TGI (DLD-1 colon) was over 100 µM. The TGI (KM20L2 colon) was over 100 µM, the TGI (DMS 114 small cell lung) was over 100 µM and the TGI (XF 498 CNS) was over 100 µM.

Cn1c2c(c3ccccc31)CCN(CCN1CCN(c3cccc(Cl)c3)CC1)C2=O gave a TGI (HOP-18 NSCLC) of over 100 µM, a TGI (M19-MEL melanoma) of over 100 µM and a TGI (DLD-1 colon) of over 100 µM. The TGI (KM20L2 colon) was over 100 µM, the TGI (DMS 114 small cell lung) was over 100 µM and the TGI (XF 498 CNS) was 34.5 µM.

Cc1nc(C(N)=S)sc1C(=O)/C=C/c1c(O)ccc2ccccc12 gave a TGI (HOP-18 NSCLC) of over 100 µM, a TGI (M19-MEL melanoma) of 19 µM and a TGI (DLD-1 colon) of over 100 µM. The TGI (KM20L2 colon) was over 100 µM, the TGI (DMS 114 small cell lung) was 98.1 µM and the TGI (XF 498 CNS) was over 100 µM.

With C=C(C)C1C/C=C(/C)CCCC2(CCC3=C(CC(C(=C)C)C/C=C(/C)CCC3)O2)C(=O)C1 (stereo not given) the TGI (HOP-18 NSCLC) was over 100 µM, the TGI (M19-MEL melanoma) was over 100 µM and the TGI (DLD-1 colon) was over 100 µM. It also gave a TGI (KM20L2 colon) of over 100 µM, a TGI (DMS 114 small cell lung) of over 100 µM and a TGI (XF 498 CNS) of over 100 µM.

C/C(=N/NC(=O)C[N+](C)(C)C)C(CN(C)C)C(=O)Nc1ccccc1 (stereo not given) was tested, and the TGI (HOP-18 NSCLC) was over 100 µM, the TGI (M19-MEL melanoma) was over 100 µM and the TGI (DLD-1 colon) was over 100 µM. The TGI (KM20L2 colon) was over 100 µM, the TGI (DMS 114 small cell lung) was over 100 µM and the TGI (XF 498 CNS) was over 100 µM.

Molecule CSC(=S)N/N=C/c1nccc2ccccc12 has a TGI (HOP-18 NSCLC) of 9.78 µM, a TGI (M19-MEL melanoma) of over 33.6 µM and a TGI (DLD-1 colon) of 22.4 µM. It also gave a TGI (KM20L2 colon) of over 27.6 µM and a TGI (XF 498 CNS) of 16.4 µM.

Molecule Cc1cc(N(CCC#N)CCC#N)ccc1/C=C(\NC(=O)/C=C/c1ccccc1)C(=O)NN has a TGI (NCI/ADR-RES ovarian) of over 100 µM, a TGI (PC-3 prostate) of over 100 µM and a TGI (M19-MEL melanoma) of over 100 µM. For the same molecule, the TGI (DLD-1 colon) was over 100 µM, the TGI (KM20L2 colon) was over 100 µM and the TGI (MDA-MB-231 breast) was over 100 µM. It also gave a TGI (DMS 114 small cell lung) of over 100 µM, a TGI (XF 498 CNS) of over 100 µM and a TGI (DU-145 prostate) of over 100 µM.

For COc1ccc2[nH]c3c(c2c1)[C@H](C)C[C@@H]1C(=O)N(c2ccccc2)C(=O)[C@H]31, the TGI (HOP-18 NSCLC) was 46.3 µM, the TGI (M19-MEL melanoma) was over 100 µM and the TGI (DLD-1 colon) was over 100 µM. The TGI (KM20L2 colon) was over 100 µM, the TGI (DMS 114 small cell lung) was over 100 µM and the TGI (XF 498 CNS) was 74.1 µM.

With CC(C)(Oc1ccc(/C=C/C(=O)c2ccc(Cl)cc2)cc1)C(=O)Nc1c(Cl)cccc1Cl the TGI (HOP-18 NSCLC) was over 100 µM, the TGI (M19-MEL melanoma) was 27.1 µM and the TGI (DLD-1 colon) was 29.2 µM. For the same molecule, the TGI (KM20L2 colon) was 46.1 µM, the TGI (DMS 114 small cell lung) was 33.7 µM and the TGI (XF 498 CNS) was 37.7 µM.

CCOC(=O)C(NC(=O)c1nc[nH]c1[N+](=O)[O-])C(C)C (stereo not given) gave a TGI (M19-MEL melanoma) of over 100 µM, a TGI (DLD-1 colon) of over 100 µM and a TGI (DMS 114 small cell lung) of over 100 µM. It also gave a TGI (XF 498 CNS) of 93.2 µM.

In the case of CSC(=NCCc1c[nH]c2ccccc12)NC#N, the TGI (M19-MEL melanoma) is reported as over 100 µM, the TGI (DLD-1 colon) is reported as over 100 µM and the TGI (KM20L2 colon) is reported as over 100 µM. The TGI (DMS 114 small cell lung) was over 100 µM and the TGI (XF 498 CNS) was over 100 µM.
